Earlier results as cited in article PMC8513935.
Blank lines part the entries; values can stand above or below the compound they belong to.

Key:
[1] = log P octanol/water from commercial databases, averaged (the ESI); conditions: Octanol (wet), 25 C
[2] = experimental, compiled by the authors from the literature (the ESI cites the sources)
[3] = derived by the authors as gas->solvent minus gas->water (a hypothetical dry solvent; the ESI), not a two-phase measurement

- log K of transfer, water to solvent [1]: 3.11 log10 K
- log K of transfer, gas to solvent ([2]; Di-n-butyl ether, 25 C): 3.51 log10 K
- log K of transfer, gas to solvent ([2]; Hexadecane, 25 C): 3.22 log10 K
- log K of transfer, gas to solvent ([2]; Hexane, 25 C): 3.5 log10 K
- log K of transfer, gas to solvent ([2]; Propanone, 25 C): 3.56 log10 K
- log K of transfer, gas to solvent ([2]; Tetrahydrofuran, 25 C): 4.16 log10 K
- log K of transfer, gas to solvent ([2]; Water, 25 C): 0.05 log10 K
- log K of transfer, water to solvent ([3]; Acetone, 25 C): 3.51 log10 K
- log K of transfer, water to solvent ([3]; Di-n-butyl ether, 25 C): 3.46 log10 K
- log K of transfer, water to solvent ([3]; Hexadecane, 25 C): 3.17 log10 K
- log K of transfer, water to solvent ([3]; Hexane, 25 C): 3.45 log10 K
- log K of transfer, water to solvent ([3]; Tetrahydrofuran, 25 C): 4.11 log10 K
Structure (SMILES): CCCCCCl

- log K of transfer, water to solvent [1]: 3.6 log10 K
- log K of transfer, gas to solvent ([2]; Butan-1-ol, 25 C): 2.34 log10 K
- log K of transfer, gas to solvent ([2]; Hexadecane, 25 C): 2.58 log10 K
- log K of transfer, gas to solvent ([2]; Pentan-1-ol, 25 C): 2.44 log10 K
- log K of transfer, gas to solvent ([2]; Water, 25 C): -1.84 log10 K
- log K of transfer, water to solvent ([3]; Butan-1-ol, 25 C): 4.18 log10 K
- log K of transfer, water to solvent ([3]; Hexadecane, 25 C): 4.42 log10 K
- log K of transfer, water to solvent ([3]; Pentan-1-ol, 25 C): 4.28 log10 K
Structure (SMILES): CCC(C)CC

Structure (SMILES): CCC(C)=O
- log K of transfer, water to solvent [1]: 0.29 log10 K
- log K of transfer, gas to solvent ([2]; 1,2-Dichloroethane, 25 C): 3.64 log10 K
- log K of transfer, gas to solvent ([2]; 2-Methylpropan-1-ol, 25 C): 2.99 log10 K
- log K of transfer, gas to solvent ([2]; 2-Methylpropan-2-ol, 25 C): 3.11 log10 K
- log K of transfer, gas to solvent ([2]; 3-Methylbutan-1-ol, 25 C): 3.01 log10 K
- log K of transfer, gas to solvent ([2]; Acetonitrile, 25 C): 3.48 log10 K
- log K of transfer, gas to solvent ([2]; Benzene, 25 C): 3.27 log10 K
- log K of transfer, gas to solvent ([2]; Butan-1-ol, 25 C): 3.02 log10 K
- log K of transfer, gas to solvent ([2]; Butan-2-ol, 25 C): 3.05 log10 K
- log K of transfer, gas to solvent ([2]; Butanone, 25 C): 3.36 log10 K
- log K of transfer, gas to solvent ([2]; Butyronitrile, 25 C): 3.38 log10 K
- log K of transfer, gas to solvent ([2]; CCl4, 25 C): 2.99 log10 K
- log K of transfer, gas to solvent ([2]; Chlorobenzene, 25 C): 3.29 log10 K
- log K of transfer, gas to solvent ([2]; Chloroform, 25 C): 3.87 log10 K
- log K of transfer, gas to solvent ([2]; Cyclohexane, 25 C): 2.47 log10 K
- log K of transfer, gas to solvent ([2]; Cyclohexanone, 25 C): 3.29 log10 K
- log K of transfer, gas to solvent ([2]; Di-n-butyl ether, 25 C): 2.73 log10 K
- log K of transfer, gas to solvent ([2]; Dichloromethane, 25 C): 3.86 log10 K
- log K of transfer, gas to solvent ([2]; Diethyl Ether, 25 C): 3.03 log10 K
- log K of transfer, gas to solvent ([2]; Ethanol, 25 C): 3.16 log10 K
- log K of transfer, gas to solvent ([2]; Hexadecane, 25 C): 2.29 log10 K
- log K of transfer, gas to solvent ([2]; Hexan-1-ol, 25 C): 2.84 log10 K
- log K of transfer, gas to solvent ([2]; Hexane, 25 C): 2.49 log10 K
- log K of transfer, gas to solvent ([2]; Methanol, 25 C): 3.34 log10 K
- log K of transfer, gas to solvent ([2]; Octan-1-ol, 25 C): 2.77 log10 K
- log K of transfer, gas to solvent ([2]; Pentan-1-ol, 25 C): 2.85 log10 K
- log K of transfer, gas to solvent ([2]; Perfluoroalkane, 25 C): 1.76 log10 K
- log K of transfer, gas to solvent ([2]; Propan-1-ol, 25 C): 3.07 log10 K
- log K of transfer, gas to solvent ([2]; Propan-2-ol, 25 C): 2.99 log10 K
- log K of transfer, gas to solvent ([2]; Propanone, 25 C): 3.42 log10 K
- log K of transfer, gas to solvent ([2]; Tetrahydrofuran, 25 C): 3.33 log10 K
- log K of transfer, gas to solvent ([2]; Toluene, 25 C): 3.13 log10 K
- log K of transfer, gas to solvent ([2]; Water, 25 C): 2.72 log10 K
- log K of transfer, water to solvent ([3]; 1,2-Dichloroethane, 25 C): 0.92 log10 K
- log K of transfer, water to solvent ([3]; 2-Methylpropan-1-ol, 25 C): 0.27 log10 K
- log K of transfer, water to solvent ([3]; 2-Methylpropan-2-ol, 25 C): 0.39 log10 K
- log K of transfer, water to solvent ([3]; 3-Methylbutan-1-ol, 25 C): 0.29 log10 K
- log K of transfer, water to solvent ([3]; Acetone, 25 C): 0.7 log10 K
- log K of transfer, water to solvent ([3]; Acetonitrile, 25 C): 0.76 log10 K
- log K of transfer, water to solvent ([3]; Benzene, 25 C): 0.55 log10 K
- log K of transfer, water to solvent ([3]; Butan-1-ol, 25 C): 0.3 log10 K
- log K of transfer, water to solvent ([3]; Butan-2-ol, 25 C): 0.33 log10 K
- log K of transfer, water to solvent ([3]; Butanone, 25 C): 0.64 log10 K
- log K of transfer, water to solvent ([3]; Butyronitrile, 25 C): 0.66 log10 K
- log K of transfer, water to solvent ([3]; CCl4, 25 C): 0.27 log10 K
- log K of transfer, water to solvent ([3]; Chlorobenzene, 25 C): 0.57 log10 K
- log K of transfer, water to solvent ([3]; Chloroform, 25 C): 1.15 log10 K
- log K of transfer, water to solvent ([3]; Cyclohexane, 25 C): -0.246 log10 K
- log K of transfer, water to solvent ([3]; Cyclohexanone, 25 C): 0.574 log10 K
- log K of transfer, water to solvent ([3]; Di-n-butyl ether, 25 C): 0.00999 log10 K
- log K of transfer, water to solvent ([3]; Dichloromethane, 25 C): 1.14 log10 K
- log K of transfer, water to solvent ([3]; Diethyl Ether, 25 C): 0.31 log10 K
- log K of transfer, water to solvent ([3]; Ethanol, 25 C): 0.44 log10 K
- log K of transfer, water to solvent ([3]; Hexadecane, 25 C): -0.433 log10 K
- log K of transfer, water to solvent ([3]; Hexan-1-ol, 25 C): 0.122 log10 K
- log K of transfer, water to solvent ([3]; Hexane, 25 C): -0.23 log10 K
- log K of transfer, water to solvent ([3]; Methanol, 25 C): 0.62 log10 K
- log K of transfer, water to solvent ([3]; Octan-1-ol(dry), 25 C): 0.05 log10 K
- log K of transfer, water to solvent ([3]; Pentan-1-ol, 25 C): 0.13 log10 K
- log K of transfer, water to solvent ([3]; Perfluoroalkane, 25 C): -0.957 log10 K
- log K of transfer, water to solvent ([3]; Propan-1-ol, 25 C): 0.35 log10 K
- log K of transfer, water to solvent ([3]; Propan-2-ol, 25 C): 0.27 log10 K
- log K of transfer, water to solvent ([3]; Tetrahydrofuran, 25 C): 0.61 log10 K
- log K of transfer, water to solvent ([3]; Toluene, 25 C): 0.41 log10 K

- log K of transfer, water to solvent [1]: 4.49 log10 K
- log K of transfer, gas to solvent ([2]; 2-Methylpropan-1-ol, 25 C): 7.01 log10 K
- log K of transfer, gas to solvent ([2]; 2-Methylpropan-2-ol, 25 C): 7 log10 K
- log K of transfer, gas to solvent ([2]; 3-Methylbutan-1-ol, 25 C): 7.13 log10 K
- log K of transfer, gas to solvent ([2]; Acetonitrile, 25 C): 7.73 log10 K
- log K of transfer, gas to solvent ([2]; Butan-1-ol, 25 C): 7.25 log10 K
- log K of transfer, gas to solvent ([2]; Butan-2-ol, 25 C): 7.07 log10 K
- log K of transfer, gas to solvent ([2]; Butanone, 25 C): 8.27 log10 K
- log K of transfer, gas to solvent ([2]; Butyronitrile, 25 C): 8.19 log10 K
- log K of transfer, gas to solvent ([2]; CCl4, 25 C): 8.05 log10 K
- log K of transfer, gas to solvent ([2]; Chloroform, 25 C): 7.86 log10 K
- log K of transfer, gas to solvent ([2]; Cyclohexane, 25 C): 7.41 log10 K
- log K of transfer, gas to solvent ([2]; Cyclohexanone, 25 C): 8.33 log10 K
- log K of transfer, gas to solvent ([2]; Di-n-butyl ether, 25 C): 7.72 log10 K
- log K of transfer, gas to solvent ([2]; Ethanol, 25 C): 7.36 log10 K
- log K of transfer, gas to solvent ([2]; Heptan-1-ol, 25 C): 7.41 log10 K
- log K of transfer, gas to solvent ([2]; Hexadecane, 25 C): 7.63 log10 K
- log K of transfer, gas to solvent ([2]; Hexane, 25 C): 7.35 log10 K
- log K of transfer, gas to solvent ([2]; Methanol, 25 C): 7.24 log10 K
- log K of transfer, gas to solvent ([2]; Octan-1-ol, 25 C): 7.52 log10 K
- log K of transfer, gas to solvent ([2]; Pentan-1-ol, 25 C): 7.33 log10 K
- log K of transfer, gas to solvent ([2]; Propan-1-ol, 25 C): 7.3 log10 K
- log K of transfer, gas to solvent ([2]; Propan-2-ol, 25 C): 7.07 log10 K
- log K of transfer, gas to solvent ([2]; Propanone, 25 C): 8.26 log10 K
- log K of transfer, gas to solvent ([2]; Propionitrile, 25 C): 8.14 log10 K
- log K of transfer, gas to solvent ([2]; Tetrahydrofuran, 25 C): 8.42 log10 K
- log K of transfer, gas to solvent ([2]; Water, 25 C): 2.8 log10 K
- log K of transfer, water to solvent ([3]; 2-Methylpropan-1-ol, 25 C): 4.21 log10 K
- log K of transfer, water to solvent ([3]; 2-Methylpropan-2-ol, 25 C): 4.2 log10 K
- log K of transfer, water to solvent ([3]; 3-Methylbutan-1-ol, 25 C): 4.33 log10 K
- log K of transfer, water to solvent ([3]; Acetone, 25 C): 5.46 log10 K
- log K of transfer, water to solvent ([3]; Acetonitrile, 25 C): 4.93 log10 K
- log K of transfer, water to solvent ([3]; Butan-1-ol, 25 C): 4.45 log10 K
- log K of transfer, water to solvent ([3]; Butan-2-ol, 25 C): 4.27 log10 K
- log K of transfer, water to solvent ([3]; Butanone, 25 C): 5.47 log10 K
- log K of transfer, water to solvent ([3]; Butyronitrile, 25 C): 5.39 log10 K
- log K of transfer, water to solvent ([3]; CCl4, 25 C): 5.25 log10 K
- log K of transfer, water to solvent ([3]; Chloroform, 25 C): 5.06 log10 K
- log K of transfer, water to solvent ([3]; Cyclohexane, 25 C): 4.61 log10 K
- log K of transfer, water to solvent ([3]; Cyclohexanone, 25 C): 5.53 log10 K
- log K of transfer, water to solvent ([3]; Di-n-butyl ether, 25 C): 4.92 log10 K
- log K of transfer, water to solvent ([3]; Ethanol, 25 C): 4.56 log10 K
- log K of transfer, water to solvent ([3]; Heptan-1-ol, 25 C): 4.61 log10 K
- log K of transfer, water to solvent ([3]; Hexadecane, 25 C): 4.83 log10 K
- log K of transfer, water to solvent ([3]; Hexane, 25 C): 4.55 log10 K
- log K of transfer, water to solvent ([3]; Methanol, 25 C): 4.44 log10 K
- log K of transfer, water to solvent ([3]; Octan-1-ol(dry), 25 C): 4.72 log10 K
- log K of transfer, water to solvent ([3]; Pentan-1-ol, 25 C): 4.53 log10 K
- log K of transfer, water to solvent ([3]; Propan-1-ol, 25 C): 4.5 log10 K
- log K of transfer, water to solvent ([3]; Propan-2-ol, 25 C): 4.27 log10 K
- log K of transfer, water to solvent ([3]; Propionitrile, 25 C): 5.34 log10 K
- log K of transfer, water to solvent ([3]; Tetrahydrofuran, 25 C): 5.62 log10 K
Structure (SMILES): c1ccc2c(c1)ccc1ccccc12
